In EP0719271B1, “5-(1-FLUORO-VINYL)-1H-PYRIMIDINE-2,4-DIONE DERIVATIVES USEFUL AS ANTINEOPLASTIC AGENTS” (MERRELL PHARMACEUTICALS INC., priority 1993, dated 1995):
pIC50: −log10 of the molar value. Where two headings read alike, the source gives them in different places.

Test system: KB cells
Experiment: Antiproliferative activity against KB cells, cell viability by colorimetric MTT reduction assay
Format: cell-based
Conditions: Homo sapiens
Procedure: Plate KB cells (2X10^3 cells/well) and allow to grow for 18 hours. Treat with 2'-deoxy-5-(1-fluoroethenyl)uridine (15ng/mL) for 24 hours. Wash the compound and expose cells to 5-fluorouracil for another 72 hours. Determine the cell viability by a colorimetric assay, essentially as described by Carmichael et al. [Cancer Res. 47, 936 (1987)], whereby the cellular reduction of MTT [3-(4,5-dimethylthiazol-2-yl)-2,5-diphenyltetrazolium bromide] is measured.
Calculate IC50 values for the individual treatments as well as for the combined treatments of 2'-deoxy-5-(1-fluoroethenyl)-uridine with 5-fluorouracil. The IC50 values at the various concentrations of 2'-deoxy-5-(1-fluoroethenyl)-uridine alone, 5-fluorouracil alone and 2'-deoxy-5-(1-fluoroethenyl)-uridine in combination with 5-fluorouracil are presented in Table 1.

Row | SMILES | pIC50 (individual treatment (compound alone), KB cells, 2X10^3 cells/well, MTT viability, read-out: IC50) | pIC50 (KB)
1 | C=C(F)c1cn([C@H]2C[C@H](O)[C@@H](CO)O2)c(=O)[nH]c1=O [2'-Deoxy-5-(1-fluoroethenyl)-uridine, 2'-deoxy-5-(1-fluoroethenyl)uridine] | 5.03 | –
2 | O=c1[nH]cc(F)c(=O)[nH]1 [5-Fluorouracil] | – | 4.22
